What was measured:
EGFR1 [1] = test: EGFR1 expression level in PC9 subcutaneous transplant model (immunohistochemical staining); format: in vivo; conditions: PC9 tumors in nude mice, 25, 50, 100 or 200 mg/kg orally twice a day for 7 days, versus unadministered group
Description: PC9 was cultured in RPMI1640 (containing 10% FBS) in a 5% carbon dioxide incubator at 37° C. The cultured human tumor cells (PC9) (8×10^6 cells/mouse) were subcutaneously transplanted into nude mice (KSN mice from SLC). Once proliferation of the tumors transplanted into the mice was observed, E7820 was orally administered to the mice for 0 mg/kg (unadministered), 25 mg/kg, 50 mg/kg, 100 mg/kg or 200 mg/kg twice a day for 7 days. Following 7 days of administration, tumor tissues were removed from the mice, fixed with formalin and embedded in paraffin. Subsequently, the paraffin-embedded tumor tissues were sliced into a thickness of 6 μm, placed on glass slides and deparaffinized with xylene/ethanol. Then, these sections were treated with […] (Roche), and subjected to immunostaining according to the protocol of Simple Stain kit: mouse MAX-PO (M) (NICHIREI) using an anti-EGFR antibody (DakoCytomation). Referring to FIG. 5, (a) to (f) show stain with control IgG (negative control), E7820-unadministered group, E7820-administered group (25 mg/kg), E7820-administered group (50 mg/kg), E7820-administered group (100 mg/kg) and E7820-administered group (200 mg/kg), respectively. Each panel was enlarged twenty times. […] This proves that E7820 also exerts an anti-tumor effect at tissue level by decreasing the EGFR1 expression level. […]

[2] = system: human colon cancer cell line (WiDr); test: Anti-tumor effect on subcutaneous transplant model of WiDr; format: in vivo, nude mouse; conditions: WiDr subcutaneous transplant, 50, 100 or 200 mg/kg orally twice a day for 14 days
Description: (§1) Human non-small-cell lung cancer cell line PC9 (obtained from Immuno-Biological laboratories Co., Ltd.), human non-small-cell lung cancer cell line A549 (obtained from Dainippon Pharmaceutical), human colon cancer cell line WiDr (obtained from Dainippon Pharmaceutical) and human colon cancer cell line HCT116 (obtained from ATCC) were cultured in RPMI1640 (containing 10% FBS) in a 5% carbon dioxide incubator at 37° C. to about 80% confluence, and the cells were collected with trypsin-EDTA. Using a phosphate buffer for PC9, WiDr and HCT116 and a 50% matrigel-containing phosphate buffer for A549, 5×10^7 cells/mL suspensions were prepared, respectively. Then, 0.1 mL each of the resulting cell suspensions was subcutaneously transplanted to the side of a nude mouse.
(§2) For PC9, 8 days after the transplantation, E7820 was orally administered for 50 mg/kg, 100 mg/kg or 200 mg/kg twice a day for 14 days. For A549, 24 days after the transplantation, E7820 was orally administered for 50 mg/kg or 200 mg/kg twice a day for 7 days. For WiDr, 11 days after the transplantation, E7820 was orally administered for 50 mg/kg, 100 mg/kg or 200 mg/kg twice a day for 14 days. […]
(§3) The major and minor axes of tumors were measured with Digimatic caliper (Mitsutoyo), and tumor volumes and relative tumor volumes were calculated according to the following formulae. […]

[3] = system: cancer cell line resistant to E7070; conditions: WO2006/030941 and WO2006/030947; cited from earlier work
EGFR1 [4] = test: EGFR1 expression and phosphorylation level in PC9 subcutaneous transplant model (western blotting); format: in vivo, nude mouse; conditions: for Phosphorylation level of EGFR1 (% of control) / EGFR1 expression level (% of control): PC9 tumor in nude mouse; for Phosphorylation level of EGFR1 (% of control): anti-EGFR pY1068 western blotting
Description: PC9 was cultured in RPMI1640 (containing 10% FBS) in a 5% carbon dioxide incubator to about 80% confluence. The cells were collected with trypsin-EDTA according to a routine procedure and 5×10^7 cells/mL suspension was prepared with a phosphate buffer. Then, 0.1 mL each of the resulting suspension was subcutaneously transplanted to the side of a nude mouse. Eight days after the transplantation, E7820 was orally administered for 50 mg/kg or 200 mg/kg twice a day for a week. One week after the start of sadministration, tumors were removed to prepare tumor cell lysates with various protease inhibitors and a cell lysis solution containing 10% glycerol and 1% Triton X-100 in ice. For each tumor cell lysate, an equal amount of protein was fractionated by SDS-PAGE and transferred onto a nitrocellulose membrane (Hybond ECL, Amersham Biosciences). Then, western blotting was performed by using an anti-EGFR1 antibody (Santa Cruz Biotechnology) or an anti-EGFR pY1068 antibody (anti-phosphorylated-EGFR1 antibody) (Cell Signaling) and horse radish peroxidase-labeled anti-mouse IgG antibody (secondary antibody) (Cell Signaling) according to a routine procedure.
Detection and quantification of each band were carried out as follows. First, each band was forced to chemically develop a color with Chemiluminescent Substrate (PIERCE), which was then captured as a digital image with Image Master VDS-CL (Amersham Pharmacia Biotech, Tokyo). The digital images were saved as TIF files and each band was numerically converted with Image Master total Lab (version 1.00, Amersham Pharmacia Biotech, Tokyo).

[5] = system: human non-small cell lung cancer cell line (PC9); test: Anti-tumor effect on subcutaneous transplant model of PC9; format: in vivo, nude mouse; conditions: PC9 subcutaneous transplant, 50, 100 or 200 mg/kg orally twice a day for 14 days
Description: as §1, §2, §3

[6] = PC9 transplanted tumors, dose-dependent, western blotting

Cc1ccc(NS(=O)(=O)c2cccc(C#N)c2)c2[nH]cc(C#N)c12 [E7820, N-(3-cyano-4-methyl-1H-indole-7-yl)-3-cyanobenzenesulfonamide]
Effect on EGFR1 expression level (immunohistochemical staining, in words) (EGFR1 [1]): decrease in the EGFR1 expression level was significant | Anti-tumor effect (relative tumor volume) [2]: showed anti-tumor effects | Cross-resistance of E7070-resistant cancer cell line (antiproliferative activity) [3]: cross-resistance | Effect on EGFR1 expression level (in words) (EGFR1 [4]; [6]): decreased the EGFR1 expression level | Effect on phosphorylation of EGFR1 (in words) (EGFR1 [4]; [6]): inhibited phosphorylation of EGFR1 | Phosphorylation level of EGFR1 (% of control) (EGFR1 [4]; 50 mg/kg orally twice a day for a week): 59 % of control | EGFR1 expression level (% of control) (EGFR1 [4]; 50 mg/kg orally twice a day for a week, western blotting): 63 % of control | Phosphorylation level of EGFR1 (% of control) (EGFR1 [4]; 200 mg/kg orally twice a day for a week): 51 % of control | EGFR1 expression level (% of control) (EGFR1 [4]; 200 mg/kg orally twice a day for a week, western blotting): 40 % of control | Anti-tumor effect (relative tumor volume) [5]: stronger anti-tumor effects

From US20100291592A1, “NOVEL MARKER FOR SENSITIVITY AGAINST SULFONAMIDE COMPOUND” (priority 2006, published 2010)
